Assay results taken from publication PMC4579064 (Toxicology and applied pharmacology, 2015).

Columns and labels:
CYP2B6 [1] = target: T1, CYP2B6 (Homo sapiens, UniProt P20813); assay: recombinant CYP activity with fluorogenic substrate; format: biochemical
T1 sequence (P20813 1-491): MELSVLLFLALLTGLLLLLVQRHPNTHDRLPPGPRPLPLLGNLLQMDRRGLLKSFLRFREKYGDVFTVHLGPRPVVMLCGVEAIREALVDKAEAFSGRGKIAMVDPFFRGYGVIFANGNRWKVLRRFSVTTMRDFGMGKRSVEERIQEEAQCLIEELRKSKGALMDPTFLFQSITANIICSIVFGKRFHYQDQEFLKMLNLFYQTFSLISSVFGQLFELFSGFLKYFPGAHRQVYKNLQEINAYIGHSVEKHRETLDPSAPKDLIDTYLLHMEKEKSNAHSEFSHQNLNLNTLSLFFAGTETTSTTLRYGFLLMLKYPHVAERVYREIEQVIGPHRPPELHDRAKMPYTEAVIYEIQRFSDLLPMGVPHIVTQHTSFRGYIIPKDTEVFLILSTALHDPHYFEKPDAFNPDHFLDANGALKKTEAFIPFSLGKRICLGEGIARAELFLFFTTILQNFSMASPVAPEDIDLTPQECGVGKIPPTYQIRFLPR

CYP2C8 = target: T2, CYP2C8 (Homo sapiens, UniProt P10632); assay: as above; format: biochemical
T2 sequence (P10632 1-490): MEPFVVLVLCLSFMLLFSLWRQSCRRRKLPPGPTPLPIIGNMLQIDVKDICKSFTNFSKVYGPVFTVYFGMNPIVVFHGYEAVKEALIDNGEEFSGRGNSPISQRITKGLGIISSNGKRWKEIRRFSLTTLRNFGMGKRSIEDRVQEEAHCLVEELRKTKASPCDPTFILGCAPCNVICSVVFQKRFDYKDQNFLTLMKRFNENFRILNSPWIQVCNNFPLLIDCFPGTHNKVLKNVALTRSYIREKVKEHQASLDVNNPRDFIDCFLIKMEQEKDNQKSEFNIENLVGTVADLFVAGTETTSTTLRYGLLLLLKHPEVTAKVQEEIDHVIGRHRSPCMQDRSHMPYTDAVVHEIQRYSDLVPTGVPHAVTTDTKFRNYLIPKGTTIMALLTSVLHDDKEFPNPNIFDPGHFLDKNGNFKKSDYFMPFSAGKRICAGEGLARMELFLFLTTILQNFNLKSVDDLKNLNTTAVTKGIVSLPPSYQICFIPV

CYP2E1 = CYP2E1 (Homo sapiens, UniProt P05181); assay: as above; format: biochemical
Sequence of CYP2E1 (P05181 whole entry, one chain of several): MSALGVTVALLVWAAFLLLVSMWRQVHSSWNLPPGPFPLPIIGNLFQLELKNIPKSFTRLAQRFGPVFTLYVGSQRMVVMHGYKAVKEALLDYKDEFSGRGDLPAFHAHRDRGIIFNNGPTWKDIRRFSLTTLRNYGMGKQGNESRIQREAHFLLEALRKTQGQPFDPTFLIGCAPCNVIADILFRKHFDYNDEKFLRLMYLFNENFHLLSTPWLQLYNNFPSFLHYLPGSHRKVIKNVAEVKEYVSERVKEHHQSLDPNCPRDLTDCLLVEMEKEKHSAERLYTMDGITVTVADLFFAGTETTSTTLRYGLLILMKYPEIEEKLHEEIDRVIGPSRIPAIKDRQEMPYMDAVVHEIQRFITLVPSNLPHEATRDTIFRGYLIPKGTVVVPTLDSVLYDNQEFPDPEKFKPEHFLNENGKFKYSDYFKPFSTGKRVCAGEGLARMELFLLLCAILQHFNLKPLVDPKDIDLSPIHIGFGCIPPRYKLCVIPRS

CYP3A5 = CYP3A5 (Homo sapiens, UniProt P20815); assay: as above; format: biochemical
Sequence of CYP3A5 (P20815 whole entry, one chain of several): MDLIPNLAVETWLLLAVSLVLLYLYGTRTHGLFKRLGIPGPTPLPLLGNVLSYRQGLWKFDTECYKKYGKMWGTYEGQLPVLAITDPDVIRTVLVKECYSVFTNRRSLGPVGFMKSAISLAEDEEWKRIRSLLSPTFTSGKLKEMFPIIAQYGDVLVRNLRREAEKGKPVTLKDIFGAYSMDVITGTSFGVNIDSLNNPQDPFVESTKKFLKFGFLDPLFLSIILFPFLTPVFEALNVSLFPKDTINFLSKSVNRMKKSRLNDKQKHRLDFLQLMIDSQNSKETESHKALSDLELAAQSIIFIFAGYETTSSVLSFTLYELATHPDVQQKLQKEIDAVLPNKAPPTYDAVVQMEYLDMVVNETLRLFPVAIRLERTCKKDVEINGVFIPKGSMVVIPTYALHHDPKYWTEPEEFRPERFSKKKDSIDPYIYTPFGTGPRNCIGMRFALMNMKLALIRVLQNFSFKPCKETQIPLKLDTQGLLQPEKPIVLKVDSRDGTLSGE

recombinant human CPR [2] = target: T3, recombinant human CPR (Homo sapiens, UniProt P16435); assay: CPR-mediated redox cycling, H2O2 formation; format: biochemical; details: menadione as redox cycling substrate of CPR; Amplex Red
T3 sequence (P16435 1-677): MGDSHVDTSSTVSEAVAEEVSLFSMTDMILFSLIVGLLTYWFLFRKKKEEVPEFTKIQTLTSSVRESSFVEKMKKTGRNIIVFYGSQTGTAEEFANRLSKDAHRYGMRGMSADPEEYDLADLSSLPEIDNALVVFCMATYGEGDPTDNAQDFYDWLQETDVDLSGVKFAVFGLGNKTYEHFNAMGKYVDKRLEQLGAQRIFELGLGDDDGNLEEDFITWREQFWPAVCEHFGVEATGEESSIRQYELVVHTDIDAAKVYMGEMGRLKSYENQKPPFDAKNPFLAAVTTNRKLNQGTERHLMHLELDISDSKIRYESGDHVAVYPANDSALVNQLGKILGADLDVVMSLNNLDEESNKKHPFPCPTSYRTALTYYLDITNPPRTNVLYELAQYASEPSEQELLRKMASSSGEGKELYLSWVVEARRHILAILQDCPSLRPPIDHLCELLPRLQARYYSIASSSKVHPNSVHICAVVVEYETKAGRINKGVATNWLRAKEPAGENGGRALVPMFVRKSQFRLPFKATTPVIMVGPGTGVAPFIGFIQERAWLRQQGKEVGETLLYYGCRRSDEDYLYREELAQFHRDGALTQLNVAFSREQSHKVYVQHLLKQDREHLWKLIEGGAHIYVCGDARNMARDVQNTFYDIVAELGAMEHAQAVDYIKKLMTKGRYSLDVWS

recombinant human CPR [3] = target: T3, recombinant human CPR; assay: CPR-mediated redox cycling, hydroxyl radical formation; format: biochemical; details: menadione; Fe/EDTA, terephthalate
[4] = format: in vivo, rat; details: menadione 20 min after parathion; 60 min
CYP2B6 [5] = target: T1, CYP2B6
CYP1A2 = target: T4, CYP1A2 (Homo sapiens, UniProt P05177); details: 50 µM menadione; parathion 200 µM
T4 sequence (P05177 2-516 limits assumed): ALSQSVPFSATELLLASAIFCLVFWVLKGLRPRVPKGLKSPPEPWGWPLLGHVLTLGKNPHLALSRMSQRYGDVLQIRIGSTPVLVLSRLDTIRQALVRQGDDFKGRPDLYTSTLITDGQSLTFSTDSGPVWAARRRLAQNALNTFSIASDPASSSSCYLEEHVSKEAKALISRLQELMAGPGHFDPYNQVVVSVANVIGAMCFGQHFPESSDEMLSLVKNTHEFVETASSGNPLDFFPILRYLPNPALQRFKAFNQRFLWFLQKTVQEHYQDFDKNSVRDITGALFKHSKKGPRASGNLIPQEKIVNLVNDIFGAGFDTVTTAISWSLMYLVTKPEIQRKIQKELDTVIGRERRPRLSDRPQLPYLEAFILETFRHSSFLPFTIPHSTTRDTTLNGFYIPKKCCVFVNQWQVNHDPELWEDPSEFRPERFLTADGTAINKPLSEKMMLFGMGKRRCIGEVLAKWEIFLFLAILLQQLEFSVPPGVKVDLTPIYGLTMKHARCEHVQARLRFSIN

CYP2D6 = CYP2D6 (Homo sapiens, UniProt P10635); assay: recombinant CYP activity with fluorogenic substrate
Sequence of CYP2D6 (P10635 whole entry, one chain of several): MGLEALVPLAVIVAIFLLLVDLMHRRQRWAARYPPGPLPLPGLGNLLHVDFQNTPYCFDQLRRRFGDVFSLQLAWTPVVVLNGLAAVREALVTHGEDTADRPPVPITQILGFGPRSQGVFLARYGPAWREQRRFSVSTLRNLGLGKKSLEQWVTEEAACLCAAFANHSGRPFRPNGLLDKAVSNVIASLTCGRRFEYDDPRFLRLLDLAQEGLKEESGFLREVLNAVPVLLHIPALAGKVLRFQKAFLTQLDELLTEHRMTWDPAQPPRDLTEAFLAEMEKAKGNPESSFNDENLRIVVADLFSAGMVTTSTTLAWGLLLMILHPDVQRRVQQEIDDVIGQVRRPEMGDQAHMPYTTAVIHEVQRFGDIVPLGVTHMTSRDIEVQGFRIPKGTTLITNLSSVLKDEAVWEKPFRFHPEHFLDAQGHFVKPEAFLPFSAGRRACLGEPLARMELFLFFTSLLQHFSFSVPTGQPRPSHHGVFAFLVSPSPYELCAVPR

CC1=CC(=O)c2ccccc2C1=O [menadione, 2-methylnaphthalene-1,4-dione]
IC50 (CYP2B6 [1]): 5.76 ± 0.78 µM
IC50 (CYP2C8): 2.36 ± 0.11 µM
IC50 (CYP2E1): 5.58 ± 1.22 µM
IC50 (CYP3A5): 9.77 ± 3.33 µM
Vmax for H2O2 formation (recombinant human CPR [2]): 4.4 µmol/min/mg CPR protein
Vmax for formation of 2-hydroxyterephthalate, a marker of hydroxyl radicals (recombinant human CPR [3]): 1.2 µmol/min/mg CPR protein
liver levels of parathion [4]: without altering
parathion in blood [4]: striking increase
serum and brain parathion levels [4]: significant increases
paraoxon formation (CYP2B6 [5]): marked decrease
CYP1A2 mediated activation of parathion and AChE inhibition (CYP1A2): completely abolished
IC50 (CYP2D6): 4.6 ± 0.87 µM
